{"source": "patent US11078192B2", "about": "“Aromatic acetylene or aromatic ethylene compound, intermediate, preparation method, pharmaceutical composition and use thereof” (GUANGZHOU MAXINOVEL PHARMACEUTICALS CO., LTD., priority 2016, dated 2021)"}
{"target": "PD-1/PD-L1 (Homo sapiens (Human), UniProt Q9NZQ7)", "sequence (Q9NZQ7 19-238)": "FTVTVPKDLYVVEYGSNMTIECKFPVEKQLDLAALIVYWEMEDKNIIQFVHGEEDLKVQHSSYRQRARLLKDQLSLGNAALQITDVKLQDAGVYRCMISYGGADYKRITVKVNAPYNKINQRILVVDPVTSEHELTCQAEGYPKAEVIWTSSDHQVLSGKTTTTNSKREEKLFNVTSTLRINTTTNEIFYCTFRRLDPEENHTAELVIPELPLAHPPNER", "assay": "Homogeneous Time-Resolved Fluorescence (HTRF) binding assay", "conditions": "CisBio kit #64CUS000C-1, read-out: IC50 of compounds binding to PD-1/PD-L1", "description": "Homogeneous Time-Resolved Fluorescence (HTRF) binding assay was used to determine the binding activity of the compound of the present invention to PD-1/PD-L1.\nThe purchased kit (CisBio, #64CUS000C-1) contained reagents required for assays such as PD-1, PD-L1, anti-tag1-Eu, Anti-tag2-XL665, Dilute Buffer, and Detection Buffer.\n1. The compound was formulated to 10 concentrations with a 3-fold gradient with 100% DMSO.\n2. The solution of the compound in DMSO was added to Dilute Buffer, mixed thoroughly, then transferred to a 96-well plate.\n3. PD-L1 was diluted with Dilute Buffer, then added to the above 96-well plate.\n4. PD-1 was diluted with Dilute Buffer and added to the above 96-well plate, which was then incubated at room temperature for 30 minutes.\n5. A portion of anti-tag1-Eu and a portion of anti-tag2-XL665 were added to Detection Buffer, mixed thoroughly and transferred to the above 96-well plate.\n6. The mixture in the above 96-well plate was incubated at room temperature for 1 to 24 hours.\n7. HTRF values were read with Envision.", "units": {"IC50": "µM"}}
{"compound": "COc1cc(/C=C/c2cccc(-c3ccccc3)c2C)cc(OC)c1CNC(CCO)C(=O)O", "note": "(centres unmarked) [Compound 43, (E)-2-(2,6-Dimethoxy-4-(2-(2-methylbiphenyl-3-yl)vinyl)benzylamino)-4-hydroxybutanoic Acid]", "IC50": 0.13}
{"compound": "COc1cc(/C=C/c2cccc(-c3ccccc3)c2C)cc(OC)c1CNc1ccc(O)c(C(=O)O)c1", "note": "[Compound 59, (E)-5-(2,6-Dimethoxy-4-(2-(2-methylbiphenyl-3-yl)vinyl)benzylamino)-2-hydroxybenzoic Acid]", "IC50": "> 10"}
{"compound": "COc1cc(/C=C/c2cccc(-c3ccccc3)c2C)cc(OC)c1CNCCO", "note": "[Compound 4, (E)-2-((2,6-Dimethoxy-4-(2-(2-methylbiphenyl-3-yl)vinyl)benzyl)amino)ethan-1-ol]", "IC50": 0.28}
{"compound": "Cc1cc(CN[C@H](C)C(=O)O)ccc1/C=C/c1cccc(-c2ccccc2)c1C", "note": "[Compound 13, (R,E)-2-(3-Methyl-4-(2-(2-methylbiphenyl-3-yl)vinyl)benzylamino)propanoic Acid]", "IC50": 0.24}
{"compound": "COc1cc(/C=C/c2cncc(-c3ccccc3)c2C)cc(OC)c1CN[C@@H](CO)C(=O)O", "note": "[Compound 63, (S,E)-2-(2,6-dimethoxy-4-(2-(4-methyl-5-phenylpyridin-3-yl)vinyl)benzylamino)-3-hydroxypropanoic Acid]", "IC50": 3.9}
{"compound": "COc1cc(/C=C/c2cccc(-c3ccccc3)c2C)cc(OC)c1CNC(C)(CO)C(=O)O", "note": "(centres unmarked) [Compound 44, (E)-2-(2,6-Dimethoxy-4-(2-(2-methylbiphenyl-3-yl)vinyl)benzylamino)-3-hydroxy-2-methylpropanoic Acid]", "IC50": 0.059}
{"compound": "Cc1cc(CN[C@H](CO)C(=O)O)ccc1/C=C/c1cccc(-c2ccccc2)c1C", "note": "[Compound 38, (R,E)-2-(3-Methyl-4-(2-(2-methylbiphenyl-3-yl)vinyl)benzylamino)-3-hydroxypropionic Acid]", "IC50": 0.23}
{"compound": "COc1cc(/C=C/c2cncc(-c3ccccc3)c2C)cc(OC)c1CNC(C)(CO)C(=O)O", "note": "(centres unmarked) [Compound 65, (E)-2-(2,6-Dimethoxy-4-(2-(4-methyl-5-phenylpyridin-3-yl)vinyl)benzylamino)-3-hydroxy-2-methylpropionic Acid]", "IC50": 2}
{"compound": "Cc1cc(CN2CCC[C@H]2CO)ccc1/C=C/c1cccc(-c2ccccc2)c1C", "note": "[Compound 12]", "IC50": 0.41}
{"compound": "Cc1c(/C=C/c2ccc(CN3CCCC(O)C3CO)cc2Cl)cccc1-c1ccccc1", "note": "(centres unmarked) [Compound 23, (E)-2-Hydroxymethyl-1-(3-chloro-4-(2-(2-methylbiphenyl-3-yl)vinyl)benzyl) piperidin-3-ol]", "IC50": 0.69}
{"compound": "COc1cc(/C=C/c2cccc(-c3ccccc3)c2C)cc(OC)c1CN1CCCC(O)C1C(=O)O", "note": "(centres unmarked) [Compound 30, (E)-1-(2,6-Dimethoxy-4-(2-(2-methylbiphenyl-3-yl)vinyl)benzyl)-3-hydroxy piperidin-2-carboxylic Acid]", "IC50": 0.46}
{"compound": "COc1cc(N2C=CCN2c2cccc(-c3ccccc3)c2C)cc(OC)c1CNC(CO)C(=O)O", "note": "(centres unmarked) [Compound 60, 2-(2,6-Dimethoxy-4-(2-(2-methylbiphenyl-3-yl)-1H-pyrazol-1-yl)benzylamino)-3-hydroxypropanoic Acid]", "IC50": "> 10"}
{"compound": "Cc1c(/C=C/c2cc(CN[C@H](CO)C(=O)O)ccc2Cl)cccc1-c1ccccc1", "note": "[Compound 35, (R,E)-2-(4-Chloro-3-(2-(2-methylbiphenyl-3-yl)vinyl)benzylamino)-3-hydroxypropionic Acid]", "IC50": 0.25}
{"compound": "COc1nc(/C=C/c2cccc(-c3ccccc3)c2C)ccc1CNC1CCCCC1NC(C)=O", "note": "(centres unmarked) [Compound 42]", "IC50": 1.1}
{"compound": "Cc1cc(CNC(CO)CO)ccc1/C=C/c1cccc(-c2ccccc2)c1C", "note": "[Compound 31, (E)-2-(3-Methyl-4-(2-(2-methylbiphenyl-3-yl)vinyl)benzylamino)-1,3-propanediol]", "IC50": 0.24}
{"compound": "Cc1cc(CNC(CO)C(=O)O)cnc1/C=C/c1cccc(-c2ccc3c(c2)OCCO3)c1C", "note": "(centres unmarked) [Compound 69, (E)-2-((6-(3-(2,3-Dihydrobenzo[b][1,4]dioxin-6-yl)-2-methylstyryl)-5-methylpyridin-3-yl)methylamino)-3-hydroxypropanoic Acid]", "IC50": 0.036}
{"compound": "Cc1cc(CN2CCC[C@H](O)[C@@H]2C(N)=O)ccc1/C=C/c1cccc(-c2ccccc2)c1C", "note": "[Compound 26, (2R,3S,E)-3-Hydroxy-1-(3-methyl-4-(2-(2-methylbiphenyl-3-yl)vinyl)benzyl)piperidin-2-carboxamide]", "IC50": 1.3}
{"compound": "COc1cc(/C=C/c2cccc(-c3ccc4c(c3)OCCO4)c2C)ccc1CN[C@@H](CO)C(=O)O", "note": "[Compound 62, (S,E)-2-(4-(3-(2,3-Dihydrobenzo[b][1,4]dioxin-6-yl)-2-methylstyryl)-2-methoxybenzylamino)-3-hydroxypropanoic Acid]", "IC50": 0.12}
{"compound": "COc1cc(/C=C/c2cccc(-c3ccc4c(c3)OCCO4)c2C)cc(OC)c1CNC(C)(CO)C(=O)O", "note": "(centres unmarked) [Compound 57, (E)-2-(4-(3-(2,3-Dihydrobenzo[b][1,4]dioxin-6-yl)-2-methylstyryl)-2,6-dimethoxybenzylamino)-3-hydroxy-2-methylpropanoic Acid]", "IC50": 0.07}
{"compound": "Cc1c(/C=C/c2ccc(CNC(CO)CO)cc2Cl)cccc1-c1ccccc1", "note": "[Compound 32, (E)-2-(3-Chloro-4-(2-(2-methylbiphenyl-3-yl)vinyl)benzylamino)-1,3-propanediol]", "IC50": 0.25}
{"compound": "COc1cc(/C=C/c2cccc(-c3ccccc3)c2C)cc(OC)c1CN[C@@](C)(CO)C(=O)O", "note": "[Compound 45, (S,E)-2-(2,6-Dimethoxy-4-(2-(2-methylbiphenyl-3-yl)vinyl)benzylamino)-3-hydroxy-2-methylpropanoic Acid]", "IC50": 0.049}
{"compound": "COc1cc(/C=C/c2cccc(-c3ccccc3)c2C)cc(OC)c1CN1CCCCC1(CO)C(=O)O", "note": "(centres unmarked) [Compound 47]", "IC50": 0.92}
{"compound": "COc1cc(/C=C/c2cccc(-c3ccccc3)c2C)cc(OC)c1CNCC(=O)O", "note": "[Compound 37, (E)-2-(2,6-Dimethoxy-4-(2-(2-methylbiphenyl-3-yl)vinyl)benzylamino)acetic Acid]", "IC50": 0.1}
{"compound": "COc1cc(/C=C/c2cccc(-c3ccccc3)c2C#N)cc(OC)c1CN1CCC[C@H]1CO", "note": "[Compound 14, (S,E)-3-(4-((2-Hydroxymethylpyrrolidin-1-yl)methyl)-3,5-dimethoxystyryl)biphenyl-2-carbonitrile]", "IC50": 0.39}
{"compound": "Cc1cc(CN2CCCC(O)C2C(=O)O)ccc1/C=C/c1cccc(-c2ccccc2)c1C", "note": "(centres unmarked) [Compound 19, (E)-3-Hydroxy-1-(3-methyl-4-(2-(2-methylbiphenyl-3-yl)vinyl)benzyl)piperidin-2-carboxylic Acid]", "IC50": 0.33}
{"compound": "COC(=O)c1ccc(-c2cccc(/C=C/c3cc(OC)c(CNC(C)(CO)C(=O)O)c(OC)c3)c2C)cc1", "note": "(centres unmarked) [Compound 49, (E)-2-(2,6-Dimethoxy-4-(2-(4′-(methoxycarbonyl)-2-methylbiphenyl-3-yl)vinyl)benzylamino)-3-hydroxy-2-methylpropanoic Acid]", "IC50": "> 10"}
{"compound": "Cc1c(/C=C/c2ccc(CNCC(O)CC(=O)O)cn2)cccc1-c1ccc2c(c1)OCCO2", "note": "(centres unmarked) [Compound 18, (E)-4-((6-(3-(2,3-Dihydrobenzo[b][1,4]dioxin-6-yl)-2-methylstyryl)pyridin-3-yl)methylamino)-3-hydroxybutanoic Acid]", "IC50": 0.19}
{"compound": "Cc1c(/C=C/c2ccc(CNCCO)cn2)cccc1-c1ccc2c(c1)OCCO2", "note": "[Compound 17, (E)-2-((6-(3-(2,3-Dihydrobenzo[b][1,4]dioxin-6-yl)-2-methylstyryl)pyridin-3-yl)methylamino)ethanol]", "IC50": 0.31}
{"compound": "Cc1c(/C=C/c2ccc(CN3CCCC(O)C3C(=O)O)cc2F)cccc1-c1ccccc1", "note": "(centres unmarked) [Compound 21, (E)-3-Hydroxy-1-(3-fluoro-4-(2-(2-methylbiphenyl-3-yl)vinyl)benzyl)piperid in-2-carboxylic Acid]", "IC50": 0.78}
